Results on 3 compounds are retold here after patent publication US20100081622A1, “Reduction of parathyroid hormone levels” (Sanos Bioscience A/S, priority 2008, published 2010).

The conditions of data set [1]: rats; cited from earlier work.
The next data set has as its system serum PTH. Conditions: tHPT patients, after 10 weeks of treatment; cited from earlier work.
Data set [2] relates to plasma PTH. Kind of data set: Plasma PTH after bedtime administration of GLP-2 in non-fasting subjects (Example 2). The data set is classed as in vivo, human. Conditions: postmenopausal women, 2x800 μg 3 hrs apart versus 1600 μg once, at bedtime, FIG. 2. As for the experimental part: The study was a randomized, block-stratified, placebo-controlled, parallel study. A total of 44 postmenopausal women were included and randomly assigned to treatment with either 1600 μg GLP-2 (n=14), 800 μg GLP-2 twice (administered 3 hrs apart) (n=15), or placebo, i.e. saline (n=15). All subjects received 2 injections one at 10 pm […] and one 3 hrs later at 1 am […]. Thus, the placebo group was given two injections of saline and the 2×800 μg group two injections of 800 μg GLP-2, while the 1600 μg group received one injection of 1600 μg GLP-2 and one injection of saline.
On the day of treatment with the study medication, blood samples for efficacy measurement was taken from 10 pm every hour until 8 am.

For data set [3], the system named is plasma PTH. Kind of data set: Plasma PTH after morning administration of GLP-2 in fasting subjects (Example 1). In kind it is in vivo, human. Particulars: postmenopausal women, one dose of 100, 200, 400 or 800 μg at 9 am, followed 8 hrs, FIG. 1. As to the method: The study was a randomized, block-stratified, placebo-controlled, parallel study. A total of 60 subjects of postmenopausal women were included and allocated to one of five groups each including 12 subjects receiving one dose of 100 μg, 200 μg, 400 μg, 800 μg GLP-2, or placebo.
On the day of treatment with the study medication, the subjects met at the study site after an overnight fast. The study medication was administered at 9 am (0 hrs) and the subjects remained fasting for another 8 hrs, thus at 5 pm the fasting period ended.

Data set [4] has as its system plasma PTH. Kind of data set: Plasma PTH at Day 1 and Day 120 after daily bedtime administration for 120 days (Example 3). The data set is classed as in vivo, human. Conditions: postmenopausal women with osteopenia; daily 0.4, 1.6 or 3.2 mg subcutaneous at bedtime for 120 days plus calcium and vitamin D. As for the experimental part: The study was a randomised, double-blinded, placebo-controlled, parallel group and dose-ranging study in 160 postmenopausal women with osteopenia (BMD T-score, −2.5≦T≦−1.0) at one or more of the regions: the lumbar spine, femoral neck or total hip. Forty (40) subjects were randomised to each treatment group to receive treatment with daily doses of 0.4 mg, 1.6 mg or 3.2 mg of GLP-2 plus calcium (800-1000 mg/day) and vitamin D (400-800 IU/day), or placebo plus calcium (800-1000 mg/day) and vitamin D (400-800 IU/day) for 120 days.
The treatment involved a daily injection of the study medication at bedtime (10:00 pm±1 hour) for 120 consecutive days.
Pharmacokinetic/dynamic sampling during treatment Day 1 and 120 included blood and urine samples collected at the time points: −1 hour, 0 min, 1 hour, 2 hours, 3 hours, 6 hours and 10 hours in connection with the injection of the study medication for the assessment of efficacy parameters and pharmacokinetic/dynamic parameters of subcutaneous injections of GLP-2.

As for `C=C1/C(=C\C=C2/CCC[C@]3(C)[C@@H]([C@H](C)CCCC(C)(C)O)CC[C@@H]23)C[C@@H](O)C[C@@H]1O` [calcitriol], the aortic calcification entry in data set [1] is reported as “moderate to marked aortic calcification”. As to `C[C@@H](NCCCc1cccc(C(F)(F)F)c1)c1cccc2ccccc12` [Cinacalcet], the “reduction in serum PTH” value in the data set with serum PTH is listed as 21.8%. Take “His-Ala-Asp-Gly-Ser-Phe-Ser-Asp-Glu-Met-Asn-Thr-Ile-Leu-Asp-Asn-Leu-Ala-Ala-Arg-Asp-Phe-Ile-Asn-Trp-Leu-Ile-Gln-Thr-Lys-Ile-Thr-Asp-Arg (HADGSFSDEMNTILDNLAARDFINWLIQTKITDR; printed: His-Ala-Asp-Gly-Ser-Phe-Ser-Asp-Glu-Met-Asn-Thr-Ile-Leu-Asp-Asn-Leu-Ala-Ala-Arg-Asp-Phe-Ile-Asn-Trp-Leu-Ile-Gln-Thr-Lys-Ile-Thr-Asp-Arg) [GLP-2]”: in the data set with plasma PTH [2], the “plasma PTH, area difference between treatment and placebo curves” value is “two injections of 800 μg produced a greater area difference between the treatment and placebo curves”. Moreover, the “plasma PTH level after GLP-2” value in the data set on plasma PTH [3] is “dose dependent rapid decrease in PTH which gradually abates over an 8 hour period”. Besides, the “effect on plasma PTH over the treatment period, Day 1 versus Day 120” value in the data set on plasma PTH [4] is given as “remains consistent”.
